{
  "source": "patent US20020045168A1",
  "about": "“Computer based modeling system” (priority 2000, published 2002)",
  "origin": "cited, not measured here",
  "conditions_in_all_cases": "experimental, native ligand",
  "key": {"Arg aptamer (1koc)": {"test_system": "Arg aptamer (1koc)"}, "AMP aptamer (1am0)": {"test_system": "AMP aptamer (1am0)"}, "citruline aptamer (1kod)": {"test_system": "citruline aptamer (1kod)"}, "[1]": {"test_system": "tobramycin aptamer (2tob)"}, "FMN aptamer (1fmn)": {"test_system": "FMN aptamer (1fmn)"}},
  "data": [
    {"smiles": "N=C(N)NCCC[C@H](N)C(=O)O", "note": "[Arginine, arginine]", "values": [
      {"measurement": "Exptl ΔGbind", "setting": "Arg aptamer (1koc)", "value": "−28.5", "unit": "kJmol^−1"}
    ]},
    {"smiles": "Nc1ncnc2c1ncn2[C@@H]1O[C@H](COP(=O)(O)O)[C@@H](O)[C@H]1O", "note": "[AMP, adenosine monophosphate]", "values": [
      {"measurement": "Exptl ΔGbind", "setting": "AMP aptamer (1am0)", "value": "−28.5", "unit": "kJmol^−1"}
    ]},
    {"smiles": "NC(=O)NCCC[C@H](N)C(=O)O", "note": "[Citruline, citruline]", "values": [
      {"measurement": "Exptl ΔGbind", "setting": "citruline aptamer (1kod)", "value": "−28.5", "unit": "kJmol^−1"}
    ]},
    {"smiles": "NC[C@H]1O[C@H](O[C@H]2[C@H](O)[C@@H](O[C@H]3O[C@H](CO)[C@@H](O)[C@H](N)[C@H]3O)[C@H](N)C[C@@H]2N)[C@H](N)C[C@@H]1O", "note": "[Tobramycin, tobramycin]", "values": [
      {"measurement": "Exptl ΔGbind", "setting": "[1]", "value": "−45.2", "unit": "kJmol^−1"}
    ]},
    {"smiles": "Cc1cc2nc3c(=O)[nH]c(=O)nc-3n(C[C@H](O)[C@H](O)[C@H](O)COP(=O)(O)O)c2cc1C", "note": "[Fmn, flavin mononucleotide]", "values": [
      {"measurement": "Exptl ΔGbind", "setting": "FMN aptamer (1fmn)", "value": "−30.1", "unit": "kJmol^−1"}
    ]}
  ]
}
